According to ChEMBL document CHEMBL1201862, “PubChem BioAssay data set” (2004):
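Cells were grown in 96-well plates and exposed to each compound for 48 hours at five concentrations; endpoints were interpolated linearly between bracketing concentrations, or set to the highest concentration if not reached. Here, GI50 denotes the concentration required for 50% inhibition of growth.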 The source made the active and inactive calls. Rule as the data show it: active = GI50 up to about 1.1 µM and inactive = higher.

Assays:
Experiment in all cases: NCI tumour cell line growth inhibition, 48 h
HOP-62 = tested on: HOP-62
UACC-257 = tested on: UACC-257
HCT-15 = tested on: HCT-15
SF-539 = tested on: SF-539
ACHN = tested on: ACHN
MDA-MB-435 = tested on: MDA-MB-435
NCI-H226 = tested on: NCI-H226
A498 = tested on: A498
TK-10 = tested on: TK-10
SF-268 = tested on: SF-268
SR = tested on: SR
IGROV-1 = tested on: IGROV-1
OVCAR-8 = tested on: OVCAR-8
NCI-H23 = tested on: NCI-H23
HT-29 = tested on: HT-29
SNB-75 = tested on: SNB-75
T47D = tested on: T47D
RXF 393 = tested on: RXF 393
MCF7 = tested on: MCF7
BT-549 = tested on: BT-549

SMILES | GI50 (HOP-62) | GI50 (UACC-257) | GI50 (HCT-15) | GI50 (SF-539) | GI50 (ACHN) | GI50 (MDA-MB-435) | GI50 (NCI-H226) | GI50 (A498) | GI50 (TK-10) | GI50 (SF-268) | GI50 (SR) | GI50 (IGROV-1) | GI50 (OVCAR-8) | GI50 (NCI-H23) | GI50 (HT-29) | GI50 (SNB-75) | GI50 (T47D) | GI50 (RXF 393) | GI50 (MCF7) | GI50 (BT-549)
O=C(Nc1ccccc1)O/N=C(/CBr)c1ccccc1 | 24.3 µM (inactive) | 17.8 µM (inactive) | 4.04 µM | 7.11 µM (inactive) | 17.1 µM (inactive) | 4.84 µM (inactive) | 24 µM (inactive) | 24 µM (inactive) | 18.1 µM (inactive) | 14.3 µM (inactive) | 3.94 µM (inactive) | 14.6 µM (inactive) | 14.6 µM (inactive) | 7.35 µM (inactive) | 6.87 µM (inactive) | 15.2 µM (inactive) | 11.5 µM (inactive) | 31.9 µM (inactive) | 16.7 µM (inactive) | –
CC(C)(C)OC(=O)N/N=C(/N)c1ccccc1 | > 100 µM (inactive) | > 100 µM (inactive) | > 100 µM | > 100 µM (inactive) | > 100 µM (inactive) | > 100 µM (inactive) | > 100 µM (inactive) | – | > 100 µM (inactive) | > 100 µM (inactive) | – | > 100 µM (inactive) | > 100 µM (inactive) | > 100 µM (inactive) | > 100 µM (inactive) | > 100 µM (inactive) | > 100 µM (inactive) | > 100 µM (inactive) | > 100 µM (inactive) | > 100 µM (inactive)
O=C(O)CC(NC(=O)CP(=O)(O)O)C(=O)O (centres undefined) | 313 µM (inactive) | – | 146 µM | – | 711 µM (inactive) | 37.6 µM (inactive) | 2280 µM (inactive) | 2470 µM (inactive) | 1420 µM (inactive) | 180 µM (inactive) | – | 335 µM (inactive) | 149 µM (inactive) | 2800 µM (inactive) | 185 µM (inactive) | 6080 µM (inactive) | 1290 µM (inactive) | 249 µM (inactive) | 381 µM (inactive) | 3210 µM (inactive)
C(=C\N1CCCCC1)/c1nnnn1-c1ccccc1 | 54 µM (inactive) | 56.2 µM (inactive) | 23.6 µM | 25.3 µM (inactive) | 37.9 µM (inactive) | 22.2 µM (inactive) | 37.2 µM (inactive) | 54.1 µM (inactive) | 43.1 µM (inactive) | 27 µM (inactive) | 23.4 µM (inactive) | 27.7 µM (inactive) | 26.4 µM (inactive) | 25.2 µM (inactive) | 84.5 µM (inactive) | 19.6 µM (inactive) | 13.5 µM (inactive) | 13.9 µM (inactive) | – | 33 µM (inactive)
O=C(O)C(=Cc1ccnc2ccccc12)C(=O)O | > 100 µM (inactive) | > 100 µM (inactive) | > 100 µM | > 100 µM (inactive) | > 100 µM (inactive) | – | > 100 µM (inactive) | > 100 µM (inactive) | > 100 µM (inactive) | > 100 µM (inactive) | > 100 µM (inactive) | > 100 µM (inactive) | > 100 µM (inactive) | > 100 µM (inactive) | > 100 µM (inactive) | > 100 µM (inactive) | > 100 µM (inactive) | > 100 µM (inactive) | > 100 µM (inactive) | > 100 µM (inactive)
O=C(/N=N/c1cccc(Cl)c1)NNc1cccc(Cl)c1 | 5.3 µM (inactive) | 19.1 µM (inactive) | 17.6 µM | – | 9.25 µM (inactive) | 11.5 µM (inactive) | 23.9 µM (inactive) | 17.7 µM (inactive) | 25.1 µM (inactive) | 24.7 µM (inactive) | 13.8 µM (inactive) | 17.5 µM (inactive) | 17.3 µM (inactive) | 26.2 µM (inactive) | 22.9 µM (inactive) | 28.5 µM (inactive) | 10.8 µM (inactive) | – | – | > 10 µM (inactive)
C=C1CCCCCCCCCCC12SCCC2CCCCSC (centres undefined) | 20 µM (inactive) | 26.1 µM (inactive) | 26 µM | 20.6 µM (inactive) | 20.3 µM (inactive) | 26.1 µM (inactive) | 20.4 µM (inactive) | 20.8 µM (inactive) | – | 28.7 µM (inactive) | 33.1 µM (inactive) | 22.5 µM (inactive) | 28.8 µM (inactive) | 25.7 µM (inactive) | 22.3 µM (inactive) | – | 17.9 µM (inactive) | 29.2 µM (inactive) | 21 µM (inactive) | –
COc1ccc(C(Cc2ccccc2)C2NC(=S)NC2=O)cc1 (centres undefined) | > 25 µM (inactive) | > 25 µM (inactive) | > 25 µM | > 25 µM (inactive) | > 25 µM (inactive) | > 25 µM (inactive) | > 25 µM (inactive) | > 25 µM (inactive) | > 25 µM (inactive) | > 25 µM (inactive) | 9.27 µM (inactive) | > 25 µM (inactive) | > 25 µM (inactive) | > 25 µM (inactive) | > 25 µM (inactive) | > 25 µM (inactive) | > 25 µM (inactive) | > 25 µM (inactive) | > 25 µM (inactive) | –
COc1cc2cc(C(=O)N3CC(CCl)c4ccc([N+](=O)[O-])cc43)[nH]c2c(OC)c1OC (centres undefined) | > 100 µM (inactive) | > 100 µM (inactive) | > 100 µM | > 100 µM (inactive) | > 100 µM (inactive) | > 100 µM (inactive) | – | > 100 µM (inactive) | > 100 µM (inactive) | > 100 µM (inactive) | – | > 100 µM (inactive) | > 100 µM (inactive) | > 100 µM (inactive) | 17.4 µM (inactive) | > 100 µM (inactive) | > 100 µM (inactive) | > 100 µM (inactive) | > 100 µM (inactive) | > 100 µM (inactive)
n1onc2c1NC1Nc3nonc3NC1N2 (centres undefined) | > 100 µM (inactive) | – | > 100 µM | > 100 µM (inactive) | > 100 µM (inactive) | > 100 µM (inactive) | > 100 µM (inactive) | > 100 µM (inactive) | > 100 µM (inactive) | > 100 µM (inactive) | – | > 100 µM (inactive) | > 100 µM (inactive) | > 100 µM (inactive) | > 100 µM (inactive) | > 100 µM (inactive) | > 100 µM (inactive) | – | > 100 µM (inactive) | –
N#Cc1nc(/C=C/c2cccnc2)oc1N | > 100 µM (inactive) | > 100 µM (inactive) | > 100 µM | > 100 µM (inactive) | > 100 µM (inactive) | > 100 µM (inactive) | > 100 µM (inactive) | > 100 µM (inactive) | > 100 µM (inactive) | > 100 µM (inactive) | > 100 µM (inactive) | > 100 µM (inactive) | – | > 100 µM (inactive) | > 100 µM (inactive) | > 100 µM (inactive) | > 100 µM (inactive) | > 100 µM (inactive) | > 100 µM (inactive) | –
CC[C@@]1(C[C@H]2C[C@@]3(C(=O)OC)c4[nH]c5ccccc5c4CCN3C2=O)COC2(CCCCC2)O1 | 22.3 µM (inactive) | 20 µM (inactive) | 33.3 µM | 35.1 µM (inactive) | 30.9 µM (inactive) | – | – | – | 32.8 µM (inactive) | 30.3 µM (inactive) | 31.3 µM (inactive) | 43.9 µM (inactive) | 43.3 µM (inactive) | 24.2 µM (inactive) | 27.4 µM (inactive) | 46.8 µM (inactive) | 29.3 µM (inactive) | 19.5 µM (inactive) | 25.5 µM (inactive) | 47.9 µM (inactive)
